From patent publication US9295673B2, “Combination of mTOR inhibitors and P13-kinase inhibitors, and uses thereof” (Intellikine LLC, priority 2011, dated 2016)
Like-named read-outs stand apart in the source and are kept apart here.

Assays:
PI3K δ = PI3K δ (Homo sapiens, UniProt O00329); assay: PI 3-Kinase (human) HTRF assay, PI3K δ
PI3K γ = PI3K γ (Homo sapiens, UniProt P48736); assay: PI 3-Kinase (human) HTRF assay, PI3K γ
PC3 = PC3 proliferation (Alamar Blue); assay type: cell-based; conditions: Homo sapiens, PC-3; for IC50: PC3 cells
Experimental: For instance, an in vitro cellular proliferation assay can be performed to measure the metabolic activity of live cells. The assay is performed in a 96 well microtiter plate using Alamar Blue reduction. […] A compound disclosed herein is diluted in Tumor Cell Media and added in a 10 ul volume. […] A volume of 10 uL of Alamar Blue reagent is added to each well and plates are incubated for 3 hours at 37 C and 5% CO2.

mTOR = molecular target: T1, mTOR (Homo sapiens, UniProt P42345); assay: mTOR kinase inhibition assay (radiometric or LanthaScreen TR-FRET); assay type: biochemical
T1 construct: purchased Invitrogen
T1 sequence (P42345 1360-2549 limits assumed): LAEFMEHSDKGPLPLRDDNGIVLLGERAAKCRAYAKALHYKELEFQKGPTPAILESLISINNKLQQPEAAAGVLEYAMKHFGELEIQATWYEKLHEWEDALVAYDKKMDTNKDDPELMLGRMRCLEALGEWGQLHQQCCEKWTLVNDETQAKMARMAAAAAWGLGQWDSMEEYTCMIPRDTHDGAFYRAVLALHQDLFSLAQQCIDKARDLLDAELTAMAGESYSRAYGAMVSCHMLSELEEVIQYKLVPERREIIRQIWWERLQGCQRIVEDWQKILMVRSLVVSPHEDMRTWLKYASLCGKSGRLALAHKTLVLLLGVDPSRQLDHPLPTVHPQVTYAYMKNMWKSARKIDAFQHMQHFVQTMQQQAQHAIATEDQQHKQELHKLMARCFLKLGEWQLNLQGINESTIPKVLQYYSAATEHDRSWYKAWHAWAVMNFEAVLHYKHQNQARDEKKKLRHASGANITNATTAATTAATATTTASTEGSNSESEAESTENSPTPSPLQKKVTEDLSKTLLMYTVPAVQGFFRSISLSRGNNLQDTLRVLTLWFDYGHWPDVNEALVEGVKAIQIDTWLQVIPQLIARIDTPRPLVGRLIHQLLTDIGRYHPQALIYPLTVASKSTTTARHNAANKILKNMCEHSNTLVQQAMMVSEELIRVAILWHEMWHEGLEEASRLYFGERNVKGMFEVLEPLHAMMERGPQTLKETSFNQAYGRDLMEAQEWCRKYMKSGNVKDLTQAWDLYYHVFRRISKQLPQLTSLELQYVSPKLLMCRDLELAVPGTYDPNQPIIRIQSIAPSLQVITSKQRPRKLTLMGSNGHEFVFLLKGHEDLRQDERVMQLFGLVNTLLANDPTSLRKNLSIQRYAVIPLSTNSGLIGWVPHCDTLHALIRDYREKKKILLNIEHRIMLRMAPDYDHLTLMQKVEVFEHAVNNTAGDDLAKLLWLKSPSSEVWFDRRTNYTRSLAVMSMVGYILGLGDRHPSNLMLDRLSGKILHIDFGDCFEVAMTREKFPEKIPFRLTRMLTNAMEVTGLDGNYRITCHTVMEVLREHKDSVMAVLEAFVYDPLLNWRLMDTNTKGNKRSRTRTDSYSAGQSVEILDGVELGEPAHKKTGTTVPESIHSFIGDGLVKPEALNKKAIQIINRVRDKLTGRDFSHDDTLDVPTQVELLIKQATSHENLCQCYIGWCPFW
Experimental: The compounds described herein can be tested against recombinant mTOR (Invitrogen) in an assay containing 50 mM HEPES, pH 7.5, 1 mM EGTA, 10 mM MgCl2, 2.5 mM, 0.01% Tween, 10 μM ATP (2.5 μCi of μ-32P-ATP), and 3 mg/mL BSA. Rat recombinant PHAS-1/4EBP1 (Calbiochem; 2 mg/mL) is used as a substrate. Reactions are terminated by spotting onto nitrocellulose, which is washed with 1M NaC1/1% phosphoric acid (approximately 6 times, 5-10 minutes each). Sheets are dried and the transferred radioactivity quantitated by phosphorimaging.
For instance, one can use Invitrogen's LanthaScreen™ Kinase assay to test the inhibitors of mTOR disclosed herein. This assay is a time resolved FRET platform that measures the phosphorylation of GFP labeled 4EBP1 by mTOR kinase. The kinase reaction is performed in a white 384 well microtitre plate. The total reaction volume is 20 ul per well and the reaction buffer composition is 50 mM HEPES pH7.5, 0.01% Polysorbate 20, 1 mM EGTA, 10 mM MnCl2, and 2 mM DTT. In the first step, each well receives 2 ul of test compound in 20% dimethylsulphoxide resulting in a 2% DMSO final concentration. […] The plate is sealed and incubated for 1 hour at room temperature. […] The plate is sealed, incubated for 1 hour at room temperature, and then read on a plate reader set up for LanthaScreen™ TR-FRET. Data is analyzed and IC50s are generated using GraphPad Prism 5.

PI3K α = PI3K α (Homo sapiens, UniProt P42336); assay: PI 3-Kinase (human) HTRF assay, PI3K α
PI3K β = PI3K β (Homo sapiens, UniProt P42338); assay: PI 3-Kinase (human) HTRF assay, PI3K β
Sequence of PI3K β (P42338 whole entry): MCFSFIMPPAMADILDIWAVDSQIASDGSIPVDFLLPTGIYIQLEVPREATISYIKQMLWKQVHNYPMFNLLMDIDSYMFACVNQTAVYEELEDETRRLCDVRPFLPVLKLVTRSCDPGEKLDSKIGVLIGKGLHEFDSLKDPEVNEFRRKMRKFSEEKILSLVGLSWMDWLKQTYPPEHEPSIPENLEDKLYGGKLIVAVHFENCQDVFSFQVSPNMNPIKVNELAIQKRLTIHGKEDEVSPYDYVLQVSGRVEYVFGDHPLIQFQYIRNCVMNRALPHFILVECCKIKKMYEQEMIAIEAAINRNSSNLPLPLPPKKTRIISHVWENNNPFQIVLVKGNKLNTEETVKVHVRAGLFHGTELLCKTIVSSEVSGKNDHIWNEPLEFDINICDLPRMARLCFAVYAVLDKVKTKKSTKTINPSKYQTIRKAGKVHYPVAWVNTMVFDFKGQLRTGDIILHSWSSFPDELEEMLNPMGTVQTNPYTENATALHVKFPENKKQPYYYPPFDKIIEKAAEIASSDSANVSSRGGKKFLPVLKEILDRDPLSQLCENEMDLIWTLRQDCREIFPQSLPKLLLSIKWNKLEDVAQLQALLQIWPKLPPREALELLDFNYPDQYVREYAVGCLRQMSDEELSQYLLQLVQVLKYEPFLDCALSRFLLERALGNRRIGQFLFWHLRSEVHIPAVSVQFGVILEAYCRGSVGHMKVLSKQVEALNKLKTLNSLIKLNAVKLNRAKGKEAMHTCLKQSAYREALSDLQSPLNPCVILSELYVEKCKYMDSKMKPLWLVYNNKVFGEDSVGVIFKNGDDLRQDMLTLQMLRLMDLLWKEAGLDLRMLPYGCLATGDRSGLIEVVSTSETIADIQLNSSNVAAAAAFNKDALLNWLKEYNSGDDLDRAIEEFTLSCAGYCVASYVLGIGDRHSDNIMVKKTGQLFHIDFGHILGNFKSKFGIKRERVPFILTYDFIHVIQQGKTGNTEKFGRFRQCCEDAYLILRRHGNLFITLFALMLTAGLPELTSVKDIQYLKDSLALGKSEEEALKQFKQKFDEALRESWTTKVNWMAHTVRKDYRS
Sequence of PI3K β (P27986 whole entry partner): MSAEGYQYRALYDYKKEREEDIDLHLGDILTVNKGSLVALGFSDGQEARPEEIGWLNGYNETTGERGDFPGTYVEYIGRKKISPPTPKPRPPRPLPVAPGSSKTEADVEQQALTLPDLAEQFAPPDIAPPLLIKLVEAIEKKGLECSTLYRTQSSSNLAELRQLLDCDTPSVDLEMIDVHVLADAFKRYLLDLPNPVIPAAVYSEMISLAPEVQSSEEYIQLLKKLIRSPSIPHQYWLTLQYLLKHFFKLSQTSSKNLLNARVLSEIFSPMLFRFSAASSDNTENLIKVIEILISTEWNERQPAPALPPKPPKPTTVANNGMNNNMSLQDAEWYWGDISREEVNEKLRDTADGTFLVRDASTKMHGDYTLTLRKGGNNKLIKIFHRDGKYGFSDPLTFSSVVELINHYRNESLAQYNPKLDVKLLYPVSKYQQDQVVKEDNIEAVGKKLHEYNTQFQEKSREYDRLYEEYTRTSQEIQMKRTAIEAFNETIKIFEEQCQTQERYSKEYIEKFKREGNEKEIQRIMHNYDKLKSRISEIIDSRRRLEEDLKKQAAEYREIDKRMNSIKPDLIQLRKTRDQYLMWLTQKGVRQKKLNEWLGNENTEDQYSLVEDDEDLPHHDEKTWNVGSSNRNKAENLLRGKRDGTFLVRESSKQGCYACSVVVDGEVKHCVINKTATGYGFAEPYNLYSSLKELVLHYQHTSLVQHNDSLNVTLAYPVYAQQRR

Sequence of PI3K γ (P48736 whole entry): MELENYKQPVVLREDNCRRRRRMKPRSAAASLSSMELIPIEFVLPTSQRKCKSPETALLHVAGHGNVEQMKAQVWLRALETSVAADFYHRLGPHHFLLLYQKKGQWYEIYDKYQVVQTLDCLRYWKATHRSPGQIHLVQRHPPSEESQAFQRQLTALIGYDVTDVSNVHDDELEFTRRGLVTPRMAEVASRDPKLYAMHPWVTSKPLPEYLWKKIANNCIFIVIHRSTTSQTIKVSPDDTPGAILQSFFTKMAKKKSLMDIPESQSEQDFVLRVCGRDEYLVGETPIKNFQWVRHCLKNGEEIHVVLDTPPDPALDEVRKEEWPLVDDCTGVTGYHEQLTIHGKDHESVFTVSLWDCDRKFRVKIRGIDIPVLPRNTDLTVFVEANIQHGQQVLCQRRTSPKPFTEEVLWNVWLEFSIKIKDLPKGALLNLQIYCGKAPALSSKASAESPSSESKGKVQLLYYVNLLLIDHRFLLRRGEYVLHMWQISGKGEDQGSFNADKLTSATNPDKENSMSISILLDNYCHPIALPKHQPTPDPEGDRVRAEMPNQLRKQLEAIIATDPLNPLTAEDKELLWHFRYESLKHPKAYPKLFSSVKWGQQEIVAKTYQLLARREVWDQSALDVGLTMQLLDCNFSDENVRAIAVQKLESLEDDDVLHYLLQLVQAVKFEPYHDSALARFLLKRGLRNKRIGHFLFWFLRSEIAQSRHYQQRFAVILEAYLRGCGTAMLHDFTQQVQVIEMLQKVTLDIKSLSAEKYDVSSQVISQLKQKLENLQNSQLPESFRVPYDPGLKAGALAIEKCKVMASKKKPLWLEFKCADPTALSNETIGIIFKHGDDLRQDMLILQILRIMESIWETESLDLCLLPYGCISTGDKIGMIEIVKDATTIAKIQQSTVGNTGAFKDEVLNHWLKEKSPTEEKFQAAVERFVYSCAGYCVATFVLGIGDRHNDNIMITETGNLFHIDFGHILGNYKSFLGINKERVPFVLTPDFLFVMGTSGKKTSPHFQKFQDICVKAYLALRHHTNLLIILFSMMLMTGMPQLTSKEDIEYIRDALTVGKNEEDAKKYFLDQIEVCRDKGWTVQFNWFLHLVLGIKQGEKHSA

Row | SMILES | IC50 (PI3K γ; read-out: PI3K γ IC50, Table 2) [nM] | IC50 (mTOR; Table 2, read-out: mTORC IC50) [nM] | IC50 (PI3K β; read-out: PI3K β IC50, Table 2) [nM] | IC50 (PI3K δ; read-out: PI3K δ IC50) [nM] | IC50 (PI3K α; read-out: PI3K α IC50, Table 2) [nM] | other results
1 | C=Cc1oc(NC(C)=O)nc1/C=C/c1nn(C)c2ncnc(N)c12 [Compound 2] |  |  |  |  |  | IC50 (PI3K δ): < 1000 nM; IC50 (PI3K γ): < 1000 nM; EC50 (PC3; Table 1): < 1000 nM; IC50 (mTOR; Table 1, read-out: mTOR IC50): < 100 nM; IC50 (PI3K α): < 10000 nM; IC50 (PI3K β): > 10000 nM
2 | Nc1ncnc2c1c(-c1cc3cccc(Cl)c3[nH]1)nn2C1CCOCC1 [Compound 51] | 100 to 500 | < 50 | > 500 |  |  | IC50 (PI3K δ; read-out: PI3K δ IC50, Table 2): 100 to 500 nM; IC50 (PI3K α; read-out: PI3K α IC50): > 500 nM
3 | CN1CCN(C2CC(n3nc(-c4cc5cc(O)ccc5[nH]4)c4c(N)ncnc43)C2)CC1 (stereo not shown) [Compound 52] |  | < 500 | > 500 | 100 to 500 |  | IC50 (PI3K γ; read-out: PI3K γ IC50): > 500 nM; IC50 (PI3K α; read-out: PI3K α IC50): > 500 nM
4 | COc1ccc(Cl)c2cc(-c3nn(C4CCOCC4)c4ncnc(N)c34)[nH]c12 [Compound 61] | > 500 | < 25 | > 500 | > 500 | > 500 | 
5 | Nc1ncnc2c1c(-c1cc3cccc(O)c3[nH]1)nn2C1CCOCC1 [Compound 62] | > 500 | < 5 | > 500 |  | > 500 | IC50 (PI3K δ; read-out: PI3K δ IC50, Table 2): 50 to 100 nM
6 | COc1cccc2cc(-c3nn(C4CCOCC4)c4ncnc(N)c34)[nH]c12 [Compound 63] | 10 to 25 | < 5 | > 500 | 10 to 25 |  | IC50 (PI3K α; read-out: PI3K α IC50): 100 to 500 nM
7 | CC(C)N1CCC(n2nc(-c3cc4cccc(O)c4[nH]3)c3c(N)ncnc32)CC1 [Compound 64] | 100 to 500 | < 25 | > 500 |  | > 500 | IC50 (PI3K δ; read-out: PI3K δ IC50, Table 2): 100 to 500 nM
8 | CC(=O)N1CCC(n2nc(-c3cc4ccc(O)cc4[nH]3)c3c(N)ncnc32)CC1 [Compound 65] | 10 to 25 | < 10 | > 500 | 10 to 25 |  | IC50 (PI3K α; read-out: PI3K α IC50): 25 to 50 nM
9 | COc1cccc2cc(-c3nn(C4CCN(C(=O)C5CC5)CC4)c4ncnc(N)c34)[nH]c12 [Compound 66] | > 500 | > 500 | > 500 | > 500 | > 500 | 
10 | COc1cc(Cl)c2[nH]c(-c3nn(C4CCOCC4)c4ncnc(N)c34)cc2c1 [Compound 67] | > 500 | > 500 | > 500 |  | > 500 | IC50 (PI3K δ; read-out: PI3K δ IC50, Table 2): > 500 nM
11 | Nc1ncnc2c1c(-c1cc3cc(O)cc(Cl)c3[nH]1)nn2C1CCOCC1 [Compound 68] | 25 to 50 | < 5 | > 500 | 10 to 25 | 100 to 500 | 
12 | CC(=O)N1CCC(n2nc(-c3cc4c(Cl)ccc(O)c4[nH]3)c3c(N)ncnc32)CC1 [Compound 69] | > 500 | < 5 | > 500 | 100 to 500 | > 500 | 
13 | CC(=O)N1CCC(n2nc(-c3cc4cc(O)cc(Cl)c4[nH]3)c3c(N)ncnc32)CC1 [Compound 70] | 50 to 100 | < 5 | > 500 |  | 100 to 500 | IC50 (PI3K δ; read-out: PI3K δ IC50, Table 2): 10 to 25 nM
14 | CC(C)N1CCC(n2nc(-c3cc4c(Cl)ccc(O)c4[nH]3)c3c(N)ncnc32)CC1 [Compound 71] | > 500 | < 100 | > 500 | > 500 | > 500 | 
15 | CC(=O)Nc1nc2ccc(-c3ccc4oc(N)nc4c3)cc2s1 [Compound 231] |  |  |  | < 100 |  | IC50 (PI3K γ; read-out: PI3K γ IC50): < 100 nM; IC50 (mTOR; read-out: mTORC IC50): < 10000 nM; IC50 (PI3K α; read-out: PI3K α IC50): < 100 nM; IC50 (PI3K β; read-out: PI3K β IC50): < 1000 nM
16 | O=C(c1cnc2ccc(-c3cnc(Cl)c(NS(=O)(=O)c4ccccc4)c3)cn12)N1CCOCC1 [Compound 451] |  |  |  |  |  | IC50 (PC3): < 1000 nM
17 | O=C(c1cnc2ccc(-c3cnc(Cl)c(NS(=O)(=O)c4ccccc4F)c3)cn12)N1CCOCC1 [Compound 452] |  |  |  |  |  | IC50 (PC3): < 10000 nM
18 | O=C(c1cnc2ccc(-c3cnc(Cl)c(NS(=O)(=O)c4ccc(F)cc4)c3)cn12)N1CCOCC1 [Compound 457] |  |  |  |  |  | IC50 (PC3): < 1000 nM
19 | O=C(c1cnc2ccc(-c3cnc(Cl)c(NS(=O)(=O)c4cccc(F)c4)c3)cn12)N1CCOCC1 [Compound 458] |  |  |  |  |  | IC50 (PC3): < 1000 nM
20 | COc1ncc(-c2ccc3ncc(C(=O)N4CCOCC4)n3c2)cc1NS(=O)(=O)c1cccnc1 [Compound 462] |  |  |  |  |  | IC50 (PC3): < 1000 nM
21 | CO[C@@H]1CCN(C(=O)c2cnc3ccc(-c4ccc5oc(N)nc5c4)cn23)C1 [Compound 464] |  |  |  |  |  | IC50 (PC3): < 10000 nM
